Measured values taken from patent US9133225B2, “Dual targeting anticancer agents” (priority 2013, dated 2015).

What was measured:
A549 cells [1] = assay: JC-1 mitochondrial membrane potential assay; type: cell-based; conditions: cisplatin or Pt(IV)(α-TOS)(OEt) at 20 μM, 4 hours
Method: To investigate the effect of Pt(IV)(α-TOS)(OEt) on mitochondria, changes in the mitochondrial membrane potential were assessed by the JC-1 assay. JC-1 (5,5′,6,6′-tetrachloro-1,1′3,3′-tetraethylbenzimidazolylcarbocyanine iodide) is a positively charged lipophilic dye, which accumulates in the mitochondria of healthy cells as red-emitting aggregates. When the mitochondrial membrane is compromised, JC-1 de-aggregates into monomeric forms that emit green fluorescence. […] These findings were confirmed using flow cytometry. A large population of untreated and Pt(IV)(α-TOS)(OEt)-treated A549 cells were examined.
In order to monitor the cell cycle, flow cytometry studies were carried out. A549 cells were incubated with and without the test compounds for 24 and 48 h at 37° C. Cells were harvested from adherent cultures by trypsinization and combined with all detached cells from the incubation medium to assess total cell viability. Following centrifugation at 1000 rpm for 5 min, cells were washed with PBS and then fixed with 70% ethanol in PBS. Fixed cells were collected by centrifugation at 2500 rpm for 3 min, washed with PBS and centrifuged as before. Cellular pellets were re-suspended in 50 μg/mL propidium iodide (Sigma) in PBS for nucleic acids staining and treated with 100 μg/mL RNaseA (Sigma). DNA content was measured on a FACSCalibur-HTS flow cytometer (BD Biosciences) using laser excitation at 488 nm and 20,000 events per sample were acquired. Cell cycle profiles were analysed using the ModFit software. For the apoptosis experiments, the Annexin V-FITC Early Apoptosis Detection Kit (Cell Signaling Technology) was used. […] The samples were kept on ice prior to being read on the FACSCalibur-HTS flow cytometer (BD Biosciences) (20,000 events per sample were acquired). Cell populations were analysed using the FlowJo software (Tree Star). […] The cells were incubated for 30 min, harvested, and analysed by using the FACSCalibur-HTS flow cytometer (BD Biosciences) (20,000 events per sample were acquired). […] Cell populations were analysed using the FlowJo software (Tree Star).

Bcl-xL-Bax interactions = target: T1, Bcl-xL-Bax interactions (Homo sapiens, UniProt Q07817); assay: Co-immunoprecipitation of Bcl-xL, probed for Bax; type: cell-based; conditions: A549 cells, respective IC50 values, 48 h
T1 construct: endogenous in cells; host or cells: A549
Method: (§1) α-TOS is known to disrupt Bcl-xL-Bax interactions, activate Bax, and thus mediate mitochondrial centered apoptotic cell death. Co-immunoprecipitation studies were carried out to determine whether the Pt(IV)-α-TOS conjugates could behave in a similar manner. […] Additional immunoblotting studies were carried to determine the effect of Pt(IV)(α-TOS)(OEt) treatment on transcription. […] Overall Pt(IV)(α-TOS)(OEt) was able to (1) downregulate Bcl-xL expression and (2) inhibit the interaction of Bcl-xL with Bax, a prerequisite for mitochondrial dysfunction. The former is inherent to cisplatin but not α-TOS, and the latter was inherent to α-TOS but not cisplatin.
A549 cells (5×10^5 cells) were incubated with test compound for 48 h at 37° C. […] The resultant cell lysate was treated with protein A-agarose bead slurry (50 μL) and centrifuged to remove proteins that bind non-specifically. Anti Bcl-XL antibody (Cell Signalling Technology) was added to the lysate and incubated for 2 h at room temperature. Protein A-agarose bead slurry (50 μL) was added and the mixture was incubated at 4° C. overnight. Centrifugation allowed separation of the immunocomplex, which was washed with cold RIPA buffer (3×500 μL). The immunocomplex was then suspended in SDS-PAGE loading buffer (50 μL) and incubated at 95° C. for 10 min. The solution containing the immunocomplex was isolated by centrifugation and then analysed for Bax content using the immunoblotting analysis protocol described above.

all cell lines = assay: MTT cytotoxicity assay, across the cell lines; type: cell-based; conditions: all cell lines; MTT; read-out: IC50 against all cell lines
Description: (§2) (a) Dulbecco's Modified Eagle Medium (DMEM), Dulbecco's phosphate buffered saline (DPBS), fetal bovine serum (FBS) and 0.25% trypsin/EDTA solutions were purchased from Cellgro (Manassas, Va.). Penicillin-streptomycin solutions were purchased from Mediatech (Manassas, Va.). (b) HeLa (CCL-2TM) cells, A549, A2870, A2870/CP70, MCF-7, PC-3, and MRC-5 cells were purchased from American Type Culture Collection (ATCC, Manassas, Va., USA). (c) HCT116 cells were kindly donated by Laura Trudel (MIT). HeLa, A549, MCF-7, and MRC-5 cells were cultured using DMEM supplemented with 10% FBS and 1% penicillin-streptomycin. A2870, A2870/CP70, and PC-3 cells were cultured in RPMI supplemented with 10% FBS and 1% penicillin-streptomycin. HCT116 cells were cultured in McCoy's supplemented with 10% FBS and 1% penicillin-streptomycin. All cell-culture experiments were performed in the aforementioned media in an incubator operating at 37° C. and in the presence of a humidified atmosphere containing 5.0% CO2. Cells were harvested using a 0.25% trypsin/EDTA solution.
(§3) The cytotoxicity of the compounds was assessed by means of the MTT assay (MTT=3-(4,5-dimethyl-2-thiazolyl)-2,5-diphenyl-2H-tetrazolium bromide). Typically, on day one, ˜1×10^3 cells were seeded into 96-well plates in 100 μL media per well. […] The optical density for each well at 550 nm was measured with a microplate reader.

MCF-7 cells = assay: MTT cytotoxicity assay, MCF-7
Description: as §2
(§4) The cytotoxicity of the compounds was assessed by means of the MTT assay (MTT=3-(4,5-dimethyl-2-thiazolyl)-2,5-diphenyl-2H-tetrazolium bromide). Typically, on day one, ˜1×10^3 cells were seeded into 96-well plates in 100 μL media per well. The last row of the plate was left empty as a control for background absorption. The cells were allowed to grow for 24 h in the incubator at 37° C. On day two, a series of drug dilutions in growth media were prepared immediately prior to cell treatment. The media in the wells of the 96 plates were replaced with 100 μL of growth media containing appropriate drug concentrations. The cells were treated for 48 h at 37° C. in the incubator. On day four, a stock solution of MTT (5 mg/mL in PBS buffer) was diluted with media so that, when 100 μL of the media was added to each well, 10 μL of MTT stock was applied. […] The optical density for each well at 550 nm was measured with a microplate reader.

[2] = test system: MRC-5 non-tumorigenic lung fibroblast cells; assay: in vitro
Description: as §2
(§5) The cytotoxicity of the compounds was assessed by means of the MTT assay (MTT=3-(4,5-dimethyl-2-thiazolyl)-2,5-diphenyl-2H-tetrazolium bromide). Typically, on day one, ˜1×10^3 cells were seeded into 96-well plates in 100 μL media per well. The last row of the plate was left empty as a control for background absorption. The cells were allowed to grow for 24 h in the incubator at 37° C. On day two, a series of drug dilutions in growth media were prepared immediately prior to cell treatment. The media in the wells of the 96 plates were replaced with 100 μL of growth media containing appropriate drug concentrations. The cells were treated for 48 h at 37° C. in the incubator. On day four, a stock solution of MTT (5 mg/mL in PBS buffer) was diluted with media so that, when 100 μL of the media was added to each well, 10 μL of MTT stock was applied. The cells were incubated for 2 h and then all the media was replaced with 100 μL of DMSO to dissolve the purple MTT-formazan crystals. The optical density for each well at 550 nm was measured with a microplate reader.

PC-3 cells = assay: MTT cytotoxicity assay, PC-3
Description: as §2, §4

HCT116 cells = assay: MTT cytotoxicity assay, HCT116
Description: as §2, §4

Bcl-xL = assay: Immunoblotting analysis of Bcl-xL expression; type: cell-based; conditions: A549 cells
Method: as §1
A549 cells (5×10^5 cells) were incubated with test compound for 48 h at 37° C. Cells were washed with PBS, scraped into SDS-PAGE loading buffer (64 mM Tris-HCl (pH6.8)/9.6% glycerol/2% SDS/5% β-mercaptoethanol/0.01% Bromophenol Blue) and incubated at 95° C. for 10 min. Whole cell lysates were resolved by 4-20% sodium dodecylsulphate polyacylamide gel electrophoresis (SDS-PAGE; 200 V for 1 h) followed by electro transfer to polyvinylidene difluoride membrane, PVDF (350 mA for 1 h). Membranes were blocked in 5% (w/v) non-fat milk in PBST (PBS/0.1% Tween 20) and incubated with the appropriate primary antibodies (Cell Signalling Technology and Santa Cruz). After incubation with horseradish peroxidase-conjugated secondary antibodies (Cell Signalling Technology), immune complexes were detected with the ECL detection reagent (BioRad) and analysed using an Alpha Innotech ChemiImager™ 5500 fitted with a chemiluminescence filter.

in vitro = conditions: human
Description: as §2, §5

[3] = test system: A2780 ovarian cancer cells; assay: PI-annexin-V dual staining apoptosis assay; type: cell-based; conditions: 10 μM for 48 hours
[4] = test system: A2780 ovarian carcinoma cells; assay: MTT cytotoxicity assay, A2780
Description: as §2, §3

A549 cells [5] = assay: MTT cytotoxicity assay, A549
Description: as §2, §3

HeLa cells = assay: MTT cytotoxicity assay, HeLa
Description: as §2, §3

[6] = test system: A2780/CP70 cells (CisPt resistant); assay: MTT cytotoxicity assay, A2780/CP70
Description: as §2, §3

T1 sequence (Q07817 whole entry): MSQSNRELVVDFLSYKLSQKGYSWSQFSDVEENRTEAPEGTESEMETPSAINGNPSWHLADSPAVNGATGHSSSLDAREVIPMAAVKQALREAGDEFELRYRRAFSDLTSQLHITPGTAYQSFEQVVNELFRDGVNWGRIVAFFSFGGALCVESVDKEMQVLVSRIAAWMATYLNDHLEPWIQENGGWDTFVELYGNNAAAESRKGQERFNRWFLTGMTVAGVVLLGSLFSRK

Row | Structure (SMILES) | Bcl-xL-Bax interaction (Bax associated to the Bcl-xL immunoprecipitate) (Bcl-xL-Bax interactions) | IC50 (MCF-7 cells) [µM] | IC50 [2] [µM] | IC50 (PC-3 cells) [µM] | IC50 (HCT116 cells) [µM] | Bcl-xL expression (Bcl-xL) | other results
1 | N#CC(C#N)=NNc1cccc(Cl)c1 [CCCP, carbonyl cyanide m-chlorophenyl hydrazone, reference compound] | – | – | – | – | – | – | JC-1 fluorescence (mitochondrial membrane disruption), microscopy (A549 cells [1]): increased green fluorescence and diminished red fluorescence
2 | CC(=O)[O][Pt]([NH2])([NH2])([Cl])([Cl])[O]C(C)=O [Pt(IV)(OAc)2] | less affected | > 100 | > 100 | > 100 | > 100 | A similar trend was observed | IC50 (all cell lines): > 100 µM
3 | Cc1c(C)c2c(c(C)c1OC(=O)CCC(=O)[O][Pt]([NH2])([NH2])([Cl])([Cl])[O]C(=O)CCC(=O)Oc1c(C)c(C)c3c(c1C)CCC(C)(CCCC(C)CCCC(C)CCCC(C)C)O3)CCC(C)(CCCC(C)CCCC(C)CCCC(C)C)O2 (stereo not drawn) [Pt(IV)(α-TOS)2] | less affected | – | – | – | – | A similar trend was observed | IC50 at 48 h (in vitro): 80.5 µM
4 | N.N.[Cl][Pt][Cl] [cisplatin, reference compound] | less affected | – | – | – | – | A similar trend was observed | cells displaying apoptotic properties [3]: 10%
5 | Cc1c(C)c2c(c(C)c1OC(=O)CCC(=O)O)CC[C@@](C)(CCC[C@H](C)CCC[C@H](C)CCCC(C)C)O2 [α-TOS, α-tocopherol succinate, reference compound] | markedly lower than the untreated control | 40.5 | 28.5 | 37 | 31.2 | – | IC50 [4]: 13.8 µM; IC50 (A549 cells [5]): 26.9 µM; IC50 (HeLa cells): 25.1 µM; IC50 [6]: 21.7 µM
